Test results taken from patent publication US20250064983A1, “COMPOSITIONS AND METHODS FOR TREATING A CARDIAC DISEASE” (The Children's Medical Center Corporation, priority 2022, published 2025).
Entries after “also recorded” stand apart in the source; their conditions may differ.

What was measured:
LKB Flox/Flox mice = test: Example 4: beat to beat variation in LKB Flox/Flox mice with NPPA-Cre (atrial fibrillation model); assay type: in vivo, mouse; conditions: co-injection of NPPA-Cre and AIP×5-mcherry AAV; 2, 4 and 6 weeks
Description: FIGS. 7A and 7B provide plots showing the impact of AIP×5 administration on atrial fibrillation in a mouse model. LKB Flox/Flox mice were double injected with AAV-NPPA-Cre and AAV-AIP×5-mcherry (see FIG. 6). FIG. 7A provides plots showing results from an experiment where mice positive for the LKB1 flanked by LoxP sites (LKB1flox/flox) were injected with either AAV9-NPPA-RFP, AAV9-NPPA-Cre or double injections of AAV9-NPPA-Cre+AAV9-cTnT-AIP×5 at post-natal day 3 (P3). At two week intervals, ECG recordings for 3 minutes were performed under anesthesia. The time difference between two QRS complexes (RR interval) was plotted as a function of the following interval (RR+1). FIG. 7B provides a plot where the standard deviation of the RR intervals for a 1 minute recording was calculated for each animal at the time points shown.
Experiments were undertaken to evaluate the efficacy of AIP×5 administration in treatment of atrial fibrillation. LKB Flox/Flox mice were double injected with NPPA-Cre and AIP×5-mcherry using an AAV vector. The mice were a model for atrial fibrillation. […] It was evaluated whether co-injection with AAV-AIP×5 would reduce AF. Beat to beat variation in HR, an index of AF frequency, was analyzed by plotting each RR interval (R) versus the RR interval of the subsequent beat (RI) (n=˜500 beats) (FIG. 7A). […] HR beat to beat variation was analyzed at 2 weeks, 4 weeks, and 6 weeks.

CaMKIIδ = CaMKIIδ (Homo sapiens, UniProt Q13557); test: in vitro inhibition of CaMKIIδ, bioluminescent ADP monitoring assay (ADP-GLO); assay type: biochemical; conditions: purified polypeptides
CaMKIIδ, sequence (Q13557 1-478): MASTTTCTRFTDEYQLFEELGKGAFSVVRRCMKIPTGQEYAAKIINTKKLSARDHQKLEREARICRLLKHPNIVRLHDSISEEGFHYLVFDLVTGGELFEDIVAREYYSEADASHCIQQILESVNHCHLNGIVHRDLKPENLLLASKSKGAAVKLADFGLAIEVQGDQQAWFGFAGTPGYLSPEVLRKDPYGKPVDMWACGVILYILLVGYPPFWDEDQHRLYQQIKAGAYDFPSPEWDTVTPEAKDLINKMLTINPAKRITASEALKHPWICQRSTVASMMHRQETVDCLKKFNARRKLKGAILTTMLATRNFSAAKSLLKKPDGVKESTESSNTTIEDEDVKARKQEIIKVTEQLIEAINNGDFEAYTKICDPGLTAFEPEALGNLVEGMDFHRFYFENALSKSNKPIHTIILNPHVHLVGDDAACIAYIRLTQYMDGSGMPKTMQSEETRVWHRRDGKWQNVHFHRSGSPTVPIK
Description: FIG. 4 provides a schematic illustrating the design of an in vitro experiment to evaluate the impact of the purified polypeptides described in FIG. 2D and shown in the left portion of FIG. 4 on CaMKIIδ (an isomer of CaMKII) activity. Activity of CaMKIIδ was measured using a bioluminescent and homogeneous ADP monitoring assay for kinases (ADP-GLO™), which is described in Zegzouti, et al. “ADP-Glo: A Bioluminescent and Homogeneous ADP Monitoring Assay for Kinases,” ASSAY and Drug Development Technologies, December 2009, 560-572, doi.org/10.1089/adt.2009.0222, the disclosure of which is incorporated herein by reference in its entirety for all purposes.
Inhibition of CaMKIIδ activity by the polypeptides was evaluated using a bioluminescent and homogeneous ADP monitoring assay for kinases (ADP-GLO™), which is described in Zegzouti, et al. “ADP-Glo: A Bioluminescent and Homogeneous ADP Monitoring Assay for Kinases,” ASSAY and Drug Development Technologies, December 2009, 560-572, doi.org/10.1089/adt.2009.0222, the disclosure of which is incorporated herein by reference in its entirety for all purposes (FIG. 4).

LKB1 knockout mice = test: Example 5: beat-to-beat variability (EKG) in LKB1 knockout mice (AF model); assay type: in vivo, mouse
Excerpt: Two different atrial fibrillation (AF) mouse models were used to test the efficacy of AIP×5 at treating AF of different origins. The two different AF mouse models were liver kinase B1 (LKB1) knock out mice and T-box transcription factor 5 (Tbx5) knock out mice.
LKB1-floxed or Tbx5-floxed mice were used to test the efficacy of AIP×5. AAV-NPPA-Cre was then used to conditionally knock out LKB1 or Tbx5 from the atria of the mice. NPPA is an atria specific promoter, ensuring that Cre recombinase directed knockout of LKB1 or Tbx5 was restricted to the atria. AAV-NPPA-FP (fluorescent protein) was used as a control virus. AAV-NPPA-FP has no Cre, and therefore the gene of interest is not knocked out. Uninjected mice were also included as a control to account for any effects caused by AAV injections. AAV-cTnT-AIP×5 or AAV-cTnT-CN19o were both tested as potential therapies to AF.
In short, P3 LKB1-floxed or Tbx5-floxed mice were injected (or not injected in the uninjected controls), and then EKG measurements of the mice were taken every two weeks starting at P14. At 12 weeks, the mice were sacrificed, and the sacrificed mice were tested for protein expression.
AF was calculated using the standard deviation of the beat-to-beat timing differences. A high beat-to-beat variability when sedated was indicative of atrial misfiring.
Statistical significance in the tests illustrated in FIGS. 10 and 11 was conducted using a 2-way Anova with post-hoc Dunnett's multiple comparisons to control (FP) group.

[1] = system: RYR2^R176Q/QT and RYR2^R4560I/WT mice; test: Example 3: AAV vectors expressing AIP×5 in CPVT animal models; assay type: in vivo, mouse; conditions: example written in present tense
Excerpt: FIG. 6 provides a schematic showing administration of AAV vectors to RYR2^R176Q/WT and RYR2^R4560I/WT mice. […]. The top portion of FIG. 6 provides a schematic showing the components of polynucleotides of the AAV vectors. In FIG. 6, ITR represents “inverted terminal repeat,” CASQ2 represents a calsequestrin 2 enhancer, cTnT represents a “cardiac troponin” promoter, an INT represents a hemoglobin enhancer, AIP×5 represents a multimer containing five autocamtide-2-related inhibitory peptide (AIP) units, mScarlet represents the fluorescent polypeptide mScarlet, nls represents a nuclear localization signal, “stop” represents a stop codon, and WPRE represents a Woodchuck Hepatitis Virus (WHV) Posttranscriptional Regulatory Element.
AAV vectors expressing AIP×5 or a negative control AIV vector expressing only mScarlet (see FIG. 6) are prepared and administered to RYR2^R176Q/QT and RYR2^R4560I/WT mice, which are animal models of catecholaminergic polymorphic ventricular tachycardia (CPVT). The efficacy of the vectors in reducing symptoms of CPVT is evaluated in the animal models.

Which results are given for “YKKALHRQEAVDALYKKALHRQEAVDALYKKALHRQEAVDALYKKALHRQEAVDALYKKALHRQEAVDAL [AIP×5]”?
symptoms of AF (beat to beat variation of RR interval) (LKB Flox/Flox mice): effective in reducing symptoms of AF; EC50 (CaMKIIδ): 114 nM; beat-to-beat variability compared to control (non-LKB1 knockout) mice (LKB1 knockout mice; 2-way Anova with Dunnett's): no statistically significant difference in beat-to-beat variability; suppression of beat-to-beat variability (LKB1 knockout mice; AAV-cTnT vector, FIG. 10): reduction in beat-to-beat variability; also recorded: effective in suppressing beat-to-beat variability; symptoms of CPVT (ectopy and/or ventricular tachycardia) [1]: reduction in symptoms of CPVT
